# Source: patent publication US20060252040A1, “Strand specific detection and quantification” (priority 2002, published 2006)
# Tests used:
# Dengue 2 virus [1] = experiment: Plaque assay of supernatants from Dengue-infected BHK-21 cells grown with ribavirin; format: cell-based; settings: m.o.i 0.00125, supernatants harvested day 3 post-infection, varying concentrations of ribavirin
# Method: (§1) Dengue virus infection and titration: Monolayers of C6/36 or BHK-21 cells were grown in 24 well plates and infected the next day with Dengue 2 virus. After adsorption for 1 hour, unbound viruses were removed by aspiration, the cells rinsed with PBS and grown in their respective maintenance media. Cells without Dengue virus infection, or inoculated with heat-inactivated virus (30 minutes at 56° C.), were used as controls. In some experiments, BHK-21 cells were infected with Dengue 2 virus and grown in the absence or presence of varying concentrations of ribavirin (1-fl-D-ribofuranosyl-1,2,4-triazole-3-carboximide; Sigma, St. Louis, Mo.) to inhibit viral transcription. Cytotoxicity of the cells due to ribavirin treatment was determined by CytoTox 96® Non-Radioactive Cytotoxicity Assay (Promega Corporation, Madison, Wis.). The titer of Dengue 2 virus was determined by plaque assay with BHK-21 cells. […] At day 6 post-infection, cells were fixed and stained with 1% crystal violet-4% formalin solution in phosphate-buffered saline (PBS), and the plaque numbers counted. […]
# (§2) To correlate the levels of replicating virus and the effects of ribavirin, BHK-21 cells were initially infected with Dengue virus at an m.o.i of 0.00125, in the absence or in the presence of varying concentrations of ribavirin. […] The results further validated the utility of this method to quantify the replicative form of the virus.
# BHK-21 cells = experiment: Cytotoxicity by LDH release (CytoTox 96 Non-Radioactive Cytotoxicity Assay); format: cell-based, hamster; settings: highest concentration used, 10 ug/ml, day 3 post-infection
# Method: as §1, §2
# Dengue 2 virus [2] = experiment: RT and real-time quantitative PCR of Dengue RNA in infected BHK-21 cells treated with ribavirin; format: cell-based; settings: m.o.i 0.00125, day 3 post-infection
# Method: RT-PCR and real-time quantitative PCR of Dengue nucleic acids: Total RNA was prepared from infected cells using the TRizol® Reagent (Invitrogen Life Technologies, Carlsbad, Calif.) according to manufacturer's instructions. The RNA obtained was quantified by spectrophotometry, and their integrity analyzed by gel electrophoresis. The RT reaction was performed at 42° C. on 2-5 ug of total RNA as described (21) using 100 U of M-MLV (Promega Corporation, Madison, Wis.) with either 12.5 pmoles of random hexamers (Promega Corporation, Madison, Wis.) or DNS-1 (5′-[…]-3′ (SEQ ID NO: 5)) in a total volume of 10 ul. […] The calculated ΔG of the hairpin loop at the RT step was −2.9 kcal/mol, with a Tm (melting temperature) of 62° C. […] However, with the conditions used for PCR, the ΔG and the Tm of the hairpin loop were −0.4 kcal/mol and 64° C. respectively.
# All real-time quantitative PCR was performed on the iCycler jQ™ Multi-Color Real Time PCR Detection System (Bio-Rad, Hercules, Calif.). The threshold cycles (Ct) were calculated using the Optical interface v2.3B (Bio-Rad, Hercules, Calif.). […] Unless stated otherwise, all real-time quantitative PCR was performed with 40 cycles of 30 s denaturation at 95° C., 30 s annealing at 60° C. and 30 s extension at 72° C. […]
# [3] = system: RNA viruses including Dengue; settings: Koff et al., 1982; Sidwell, 1979; cited from earlier work
smiles,measurement,setting,value
"NC(=O)c1ncn([C@@H]2O[C@H](CO)[C@@H](O)[C@H]2O)n1 [Ribavirin, 1-fl-D-ribofuranosyl-1,2,4-triazole-3-carboximide]",viral replication (relative PFU),Dengue 2 virus [1],inhibited viral replication in a concentration dependent manner
same,cell death (LDH release),BHK-21 cells,did not induce detectable cell death
same,"replicative, negative Dengue RNA strand","Dengue 2 virus [2]; RT with DNS-1, increasing concentrations of ribavirin",concomitant decrease with increasing concentrations of ribavirin
same,"viral transcripts, random hexamer-primed RT, primers to the envelope region",Dengue 2 virus [2]; varying concentrations of ribavirin,corresponding decrease in viral transcripts
same,replication of RNA viruses,[3],known to inhibit the replication of many RNA viruses including Dengue
